Results reported in US8445502B2, “Pharmaceutical formulations comprising salts of a protein kinase inhibitor and methods of using same” (Astex Pharmaceuticals, Inc., priority 2007, dated 2013).
Entries after “also recorded” stand apart in the source; their conditions may differ.

Tests used:
SB-CL2 melanoma cells = experiment: SB-CL2 melanoma tumor model in athymic nude mice; assay type: in vivo; conditions: IP 50 & 75 mg/kg, qd × 5, TV-10
Protocol: (§1) MP470 and MP470 HCl were tested against different tumor types in athymic nude mice as summarized below (Table 8). Various formulations and routes were evaluated. HT-29 colorectal cancer cells and SB-CL2 melanoma cells were implanted subcutaneously, while A549 lung cancer cells, MiaPaCa-2 pancreatic cancer cells, TT medullary thyroid cancer cells, and OVCAR-3 ovarian cancer cells were implanted […] in the hind flank of mice. All animals were allowed to develop medium-sized (80-125 mg) tumors, before initiation of dosing. Tumor volume and mouse bodyweight were followed over the course of the study.

[1] = both, beagle, dog, in vivo, 5 days
Protocol: In the first study, 2 doses of MP470 were tested, a low dose of 10 mg/kg followed 48 hours later by a dose of 20 mg/kg. Dosage escalation stopped after the 20 mg/kg dose due to observations of adverse clinical signs. After the second dose, the animals were observed everyday for 3 additional days for adverse clinical signs. Over the course of the 5 days of study both dogs gained weight. […] The female dog experienced retching immediately after dosing. Upon administration of the 20 mg/kg dose both the female and male dog experienced unacceptable adverse effects. After three more days of observation both dogs were euthanized and necropsy was performed. The necropsy observations considered abnormal include thrombus observed in the dosing veins of both dogs and possible mild venous congestion in the meningeal vein between brain hemispheres and in the venous sinus on cranial floor of the male animal. From this study the maximally tolerated dose in beagle dogs was determined to be 20 mg/kg.

[2] = tested on: OVCAR-3 ovarian cancer cells; experiment: OVCAR-3 ovarian cancer tumor model in nude mice; assay type: in vivo
Protocol: as §1
OVCAR-3 Ovarian Cancer Model—Forty-two nude mice were implanted subcutaneously with OVCAR-3 ovarian carcinoma, the hydrochloride salt of MP470 (MP470.HCl) was formulated in 100% corn oil and delivered orally. MP470.HCl, cisplatin, and irinotecan were administered to animals alone or in combination. When administered alone, MP470.HCl was given qd at 100 or 200 mg/kg, irinotecan was given q3d at 20 mg/kg, and cisplatin was given q7d at 5 mg/kg. In combination studies, 100 mg/kg MP470.HCl was given qd and combined with 20 mg/kg irinotecan given q3d or 5 mg/kg cisplatin given q7d. One animal in the 200 mg/kg MP470.HCl group died on Day 1, while five animals in the MP470.HCl/cisplatin combination group died (one on Day 5, Day 6, Day 7, Day, 20, and Day 27). Treatment with each individual agent (200 mg/kg MP470.HCl, 46.2 mm3/d; 20 mg/kg irinotecan, 38.53 mm3/d; 5 mg/kg cisplatin, 33.8 mm3/d) reduced the tumor growth rate below that of vehicle-treated mice (78.04 mm3/d). […] In contrast, when MP470.HCl and cisplatin were used in combination, the tumor growth rate was reduced to 10.22 mm3/d. However, the 100 mg/kg dose of MP470.HCl in combination with cisplatin caused enhanced toxicity and most animals in this group died during the 21-day treatment period. The enhanced toxicity was related to the level of the dose used, so a subsequent study was conducted using half the dose, 50 mg/kg/day as described below.

[3] = tested on: Erk phosphorylation in Panc-1 Pancreas Cancer Cells; experiment: Erk phosphorylation after PMA stimulation; assay type: cell-based; conditions: PMA-stimulated cells; compared to PMA alone and PD98059; hydrochloride
Excerpt: FIG. 11 illustrates the Erk phosphorylation changes in Panc-1 Pancreas Cancer Cells after MP470 hydrochloride exposure
Regulation of Erk phosphorolation—MP470.HCl activity was screened against potential biomarkers, including proteins, such as Erk that are activated downstream of c-Kit. Erk was selected from potential candidate markers to evaluate changes in protein phosphorylation in treated cancer cell lines because MP470 appeared to regulate this event. […] Exposure to PMA is known to rapidly stimulate Erk phosphorylation and was used as a positive control.

[4] = both, Sprague Dawley, rat, in vivo, 72 h
Protocol: Four groups of Sprague Dawley rats, each consisting of two males and two females, received escalating single doses of 100, 200, 800 and 2000 mg/kg of the test article. MP470.HCl was suspended in an aqueous vehicle constituting 0.5% w/v carboxymethylcellulose and administered by oral gavage. […] Doses were based on body weights on the day of dosing. The animals were euthanized after the last observation. […] A single oral dose no-observed-effect level (NOEL) was 2000 mg/kg. Acute maximum tolerated dose (MTD) was greater than 2000 mg/kg (highest dose tested).

in vivo = conditions: dog
Protocol: Two groups of dogs, each consisting of one male and one female, received alternating escalating single doses of 30, 60, 240, 1000, and 2000 mg/kg of the test article. MP470.HCl was administered by capsule. […] No test article related mortalities or clinical signs of toxicity were observed. Test article related effects were limited to emesis following administration of 1000 and 2000 mg/kg doses. Single oral dose NOEL was determined to be 240 mg/kg and the acute oral MTD was 2000 mg/kg (highest dose tested).

SMILES	Outcome: tumor growth (SB-CL2 melanoma cells)	maximally tolerated dose [1] [mg/kg]	animals that died ([2]; 200 mg/kg MP470.HCl group, Day 1)	tumor growth rate ([2]; 200 mg/kg qd oral in corn oil (vehicle 78.04)) [mm3/d]	Outcome: tumor growth ([2]; OVCAR-3, PO 100 or 200 mg/kg, qd × 28, corn oil, hydrochloride)	level of Erk phosphorylation (P-Erk) [3]	single oral dose no-observed-effect level (NOEL) [4] [mg/kg]	Acute maximum tolerated dose (MTD) ([4]; po)	MTD at 24 h (in vivo; both sexes, po) [mg/kg]	Single oral dose NOEL (in vivo; both, 24 h) [mg/kg]
S=C(NCc1ccc2c(c1)OCO2)N1CCN(c2ncnc3c2oc2ccccc23)CC1 [MP470, 4-[1]benzofuro[3,2-d]pyrimidin-4-yl-N-(1,3-benzodioxol-5-ylmethyl)piperazine-1-carbothioamide]	Dose dependency	20	–	–	–	–	–	–	–	–
Cl.S=C(NCc1ccc2c(c1)OCO2)N1CCN(c2ncnc3c2oc2ccccc23)CC1 [MP470.HCl, 4-[1]benzofuro[3,2-d]pyrimidin-4-yl-N-(1,3-benzodioxol-5-ylmethyl)piperazine-1-carbothioamide hydrochloride]	–	–	One	46.2	Dose dependency	reduced the level of Erk phosphorylation; also recorded: reduced the level of P-Erk below that of PD98059	2000	greater than 2000 mg/kg	2000	240
